{"source": "patent US20170281624A1", "about": "“COMBINATION THERAPIES OF ALK INHIBITORS” (Novartis AG, priority 2014, published 2017)", "key": {"[1]": {"test_system": "PD-L1 (CD274) in H3122 cells", "assay": "PD-L1 (CD274) expression by TaqMan real time PCR and flow cytometry", "assay_type": "cell-based, human", "procedure": "This example evaluates the effects of selected therapeutic agent LDK378 on PD-L1 (CD274) modulation. LDK378 was examined by real time PCR and flow cytometry on PD-L1 levels.\nTaqMan RT PCR assays were developed to detect changes of expression levels of PD-L1 (CD274) in cell lines and xenograft tumors. mRNA was isolated from frozen cell pellets or tumor fragments using the Qiagen RNeasy Mini kit. Isolated RNA was frozen at −80° C. RNA quality was checked and RNA was quantified using a 2100 Agilent Bioanalyzer following the protocol for the Agilent RNA 6000 Nano Kit. cDNA was prepared using a High Capacity RNA-to cDNA Kit (Applied Biosystems).\nReal-time PCR reactions were carried out in 20 μl total volume, including 10 μl of Universal PCR master mix (Applied Biosystems), 1 μl of human PD-L1 (CD274) probe/primer set (Applied Biosystems), and 8 μl of cDNA. Each sample was run in triplicate. The amount of cDNA produced from 25-50 ng of RNA in the reverse transcription reaction was used in each PCR reaction. Due to difference in mRNA levels between PD-L1 and GAPDH, the two real-time PCR reactions were done in separate tubes using same amount of cDNA. The real-time PCR reaction was run on the C1000 Thermal Cycle (BioRad) with the cycle program as follows: a 10 minute incubation at 95° C. followed by 40 cycles of 95° C. for 15 seconds and 60° C. for 1 minute. […]"}, "[2]": {"conditions": "ceritinib trials; cited from earlier work"}, "ALK-positive NSCLC": {"test_system": "ALK-positive NSCLC", "assay": "Clinical study of LDK378 in ALK-positive NSCLC patients, 750 mg dose group", "assay_type": "in vivo, human"}}}
{"smiles": "Cc1cc(Nc2ncc(Cl)c(Nc3ccccc3S(=O)(=O)C(C)C)n2)c(OC(C)C)cc1C1CCNCC1", "note": "[LDK378, 5-chloro-N^2-(2-isopropoxy-5-methyl-4-(piperidin-4-yl)phenyl)-N^4-[2-(propane-2-sulfonyl)-phenyl]-pyrimidine-2,4-diamine]", "values": [{"measurement": "PD-L1 mRNA", "setting": "[1]; H3122 (NSCLC with ALK translocation) in vitro, FIG. 1", "result": "Inhibition"}, {"measurement": "PD-L1 levels on tumor cells", "setting": "[1]; real time PCR and flow cytometry", "result": "Significant inhibition"}, {"measurement": "immune-related adverse events", "setting": "[2]", "result": "have not been frequently reported"}, {"measurement": "median progression-free survival (PFS)", "setting": "ALK-positive NSCLC; 750 mg, 53.3% of the patients censored", "result": 8.21, "unit": "months"}, {"measurement": "median time to response", "setting": "ALK-positive NSCLC; 144 patients with confirmed CR or PR, 750 mg", "result": 6.1, "unit": "weeks"}, {"measurement": "overall response rate (ORR)", "setting": "ALK-positive NSCLC; 246 ALK-positive NSCLC patients, 750 mg dose group (RD)", "result": 58.5, "unit": "%"}, {"measurement": "ORR", "setting": "ALK-positive NSCLC; ALK inhibitor-naïve patients", "result": 66.3, "unit": "%"}, {"measurement": "patients who achieved a response within 12 weeks", "setting": "ALK-positive NSCLC; among the 144 patients with confirmed CR or PR, 750 mg", "result": 86.1, "unit": "%"}, {"measurement": "estimated median duration of response (DOR)", "setting": "ALK-positive NSCLC; investigator assessment, 750 mg", "result": 9.69, "unit": "months"}, {"measurement": "ORR", "setting": "ALK-positive NSCLC; patients treated with a prior ALK inhibitor", "result": 54.6, "unit": "%"}]}
